“Also recorded” adds a separate entry of the source. Peptide text beside a SMILES is read from it. * marks the point of attachment. Cbz = O=C(OCc1ccccc1)*
Key:
Format in all cases: cell-based, human
FBXL2 = assay: Live-cell imaging of GFP-tagged FBXL2 localization in HeLa cells; conditions: HeLa cells transfected with GFP-tagged FBXL2; GGTi-2418 15 μM for 16 h
Experimental: FIGS. 6A, 6B, 6C, 6D, 6E, 6F, 6G, and 6H that the degradation of IP3R3 is dependent on FBXL2 localization to cell membranes and on the segregase activity of p97. […] Live cell imaging was carried out with an LSM510 confocal microscope using a 63× objective. Scale bars, 10 μm. […] Cells were subsequently harvested at the indicated times for immunoblotting. […] Cells were subsequently harvested for immunoblotting. This experiment was performed once. […] The bracket on the right marks a ladder of bands which, presumably, are ubiquitinated species of IP3R3 that are not degraded when p97 is inhibited. […] Cells were subsequently stimulated with medium containing serum and harvested at the indicated time points for immunoblotting. […] Error bars indicate s.e.m. […] Thus, we propose that, after its FBXL2-mediated ubiquitination, IP3R3 is extracted from cell membranes by the segregase activity of p97 to be degraded by the proteasome. […] 24 h post-transfection, cells were treated with MG132 for 3 h before harvesting for immunoprecipitation and immunoblotting as indicated. This experiment was performed twice. […] After immunopurification with an anti-Flag resin, in vitro ubiquitination of IP3R3 was performed in the presence of UAE1, Ubch3, Ubch5 and ubiquitin (Ub). […] Samples were analysed by immunoblotting with the indicated antibodies. […]

Ca2+ mobilization = assay: Cytosolic Ca2+ mobilization measured with aequorin in NHFs in response to ATP; conditions: NHFs re-stimulated with serum for one hour; ATP stimulation
Experimental: FIGS. 7A, 7B, 7C, 7D, 7E, 7F, 7G, 7H, and 7I show FBXL2 controls Ca2+ mobilization and Ca2+-mediated apoptosis. […] Quantification of three independent experiments is shown and represented as percentage increase compared to EXP cells, which were set as 100%. P values were calculated by one-way ANOVA and multiple-comparisons test. Error bars indicate s.e.m. […] Quantifications and P value analyses was performed as in a. […] On the left, representative traces. On the right, quantification of three independent experiments. P values were calculated by a one-way ANOVA and multiple-comparisons test. Error bars indicate s.e.m. […] Concentrations of cytosolic (7d) and mitochondrial (7e) Ca2+ were measured with the appropriate aequorin in response to agonist stimulation (ATP). […] On the right, quantifications of three independent experiments. P values were calculated by one-way ANOVA and multiple-comparisons test. […] P values were calculated by unpaired t-test. […] Induction of cell death was evaluated after treatment with H2O2 using automated nuclei count analysis of twenty randomly chosen fields. P values were calculated by one-way ANOVA and multiple-comparisons test. […] Left, representative traces showing concentrations of mitochondrial Ca2+ measured with mitochondrial targeted aequorin. Right, quantification of three independent experiments. P values were calculated by one-way ANOVA and multiple-comparisons test. […]

IP3R3 = IP3R3 levels in U87 and A549 cells (immunoblotting); conditions: U87 and A549 cells (no or low PTEN); GGTi-2418 for 16 h

Structure (SMILES) | FBXL2 localization (FBXL2) | serum-mediated decrease in Ca2+ mobilization (Ca2+ mobilization) | IP3R3 levels (IP3R3)
Cc1nc[nH]c1CN1CCN(C(=O)N[C@@H](CC(C)C)C(=O)O)[C@@H](Cc2ccccc2)C1=O [GGTi-2418] | delocalized FBXL2; also recorded: delocalizes FBXL2 from membranes | inhibited the serum-mediated decrease in Ca2+ mobilization | IP3R3 levels increased
CC(C)C[C@@H](C=O)NC(=O)[C@H](CC(C)C)NC(=O)[C@H](CC(C)C)NC(=O)OCc1ccccc1 [MG132] (Cbz-Leu-Leu-Leu-aldehyde) |  | inhibited the serum-mediated decrease in Ca2+ mobilization | 

From patent publication US11583525B2, “Geranylgeranyltransferase I inhibitor for treatment of a PTEN defective cancer” (H. LEE MOFFITT CANCER CENTER AND RESEARCH INSTITUTE, INC., priority 2017, dated 2023)
